From patent publication EP0316117A1 (priority 1987, dated 1989)

Assays:
Sendai virus = Sendai virus assay (method as described for Parainfluenza); type: cell-based; conditions: reduction in the virus titer compared to control
Parainfluenza virus = Parainfluenza virus pre-incubated with compound, grown in fertilized hen eggs, hemagglutination read-out; type: cell-based; set-up: key: -: undetectable; ++++: indicative of hemagglutination produced by virus grown under control conditions
Description: The effectiveness of certain novel compounds was tested against Parainfluenza virus which was grown in fertilized hen eggs as determined by the method of Haywood, J. of Mol. Biol., 83, 427 (1974). The virus was at titer of 10^5 to 10^6 was incubated in the presence of 10 ug/ml or 100 u^g/ml of one of the four compounds at 37° C for 2 hours. The mixtures of the virus and anti-viral compound were diluted to a final concentration of 10-^7 then injected into 9-day old fertilized hen eggs using 5 to 6 eggs for each dilution and incubated at 37° C for 48 hours. After the incubation period, a drop of amniotic fluid from the eggs was put on mirror-glass and mixed with 2% washed hen erythrocytes. Appearance of hemagglutination indicated the presence of virus in the egg. LDso was calculated from the results. The following Table 1 presents the results that were obtained. The virus concentrations ranged from -(undetectable) to + + + + (indicative of hemagglutination produced by virus grown under control conditions).

[1] = compound 100 µg/ml, Virus Concentrations 10
[2] = compound 100 µg/ml, Virus Concentrations 10^2
[3] = compound 100 µg/ml, Virus Concentrations 10^3

Row | Substance | Virus Titer Reduction (Sendai virus; 1µg/ml) | Virus Titer Reduction (Sendai virus; 10µg/ml) | Virus Titer Reduction (Sendai virus; 50µg/ml) | Virus Titer Reduction (Sendai virus; 100µg/ml) | hemagglutination (presence of virus in the egg) (Parainfluenza virus; [1]) | hemagglutination (presence of virus in the egg) (Parainfluenza virus; [2]) | hemagglutination (presence of virus in the egg) (Parainfluenza virus; [3]) | hemagglutination (presence of virus in the egg) (Parainfluenza virus; compound 10 µg/ml, Virus Concentrations 10^4) | hemagglutination (presence of virus in the egg) (Parainfluenza virus; compound 10 µg/ml, Virus Concentrations 10) | hemagglutination (presence of virus in the egg) (Parainfluenza virus; compound 10 µg/ml, Virus Concentrations 10^2)
1 | 4-N-Acetyl phosphatidylethanolamine [A-PE] | about 50% | ranged from 75-95% | ranged from 90-99% | 100% (virus undetectable) |  |  |  |  |  | 
2 | Phosphatidyl benzyl alcohol [P-BA] |  |  |  |  | - | - | - |  |  | 
3 | N-(1,1-dimethyl 3-oxybutyl phosphatidyl ethanolamine [DMOB-PE] | less than 10% | ranged from 75-99% | ranged from 90-93% | 100% (virus undetectable) | - | - |  | ++++ |  | 
4 | 5-Schiff Base of PE and Menadione (Vitamin K3) [PE-M] |  |  |  |  | - | - | - |  | - | -
